# Assay results reported in paper PMC10873978, “Novel tetrahydroisoquinolines as DHFR and CDK2 inhibitors: synthesis, characterization, anticancer activity and antioxidant properties” (BMC Chemistry, 2024).
# What was measured:
# Eef2 kinase = Eef2 kinase (Homo sapiens, UniProt O00418); test: Eef2 kinase inhibition; type: biochemical
# MCF7 cell line = test: In vitro cytotoxic activity, MTT method, MCF7; type: cell-based, human
# Description: (§1) Cell lines: The in vitro human breast cancerous cell line (MCF7), lung cancerous cell lines (A549) and normal cell lines were purchased from Serum and Vaccine formulation in Cairo-Egypt.
# (§2) In vitro cytotoxic activity of all synthesized compounds against two human breast cell line (MCF7) and lung cell lines (A549) was evaluated according to the MTT method. Firstly, Growth the cell line medium in 96 well tissue culture plate was injected with 10^5 cells/mL (100 uL/plate well) of the cell line and incubated at 37 °C for 24 h to develop a monolayer sheet then the formed growth medium was poured from 96 well microtiter plates after the confluent sheet of cells. […] Secondly, add 0.1 mL of each concentration tetrahydroisoquinoline sample to each plate. The plates were incubated at 37 °C. Thirdly MTT solution (5 mg/mL in PBS) is prepared. Add 20 µL of MTT solution to each well plates. And shaking in 150 rpm for 5 min, to mix the MTT into the media. Then incubate at (37 °C, 5% CO2) for 1–5 h. Finally read the optical density at 560 nm and subtract background at 620 nm.
# (§3) In this work, doxorubicin was used as a positive control drug for comparison with the synthesized compounds under the same experimental conditions.
# A549 cell line = test: In vitro cytotoxic activity, MTT method, A549
# Description: as §1, §2, §3
# [1] = DPPH scavenging antioxidant activity
# Description: The antioxidant activity of ten compounds was determined using DPPH [32–34]. A solution 1: prepared by dissolving DPPH (0.002 g) in ethanol (50 mL etnanol). Solution 2: prepared by dissolving different weights 0.05, 0.01 g of each sample in 1 mL of DMSO then take 10 µL of each sample solution with 1 mL ethanol. Then mix 1 mL of solution 1 with 1 mL of solution 2 then vortex the resulting mixture in the dark for about 30 min. The absorbance of the mixture was measured by spectrophotometer at λmax = 517 nm against blank 1 mL absolute ethanol and compared to the ascorbic acid (Vitamin C).
# Ten newly synthesized compounds were studied as in vitro antioxidants by measuring of their DPPH scavenging activity which is represented as a percentage % [32]^. Results are represented by mean ± SD of three replicates. […] The higher dose concentration of 0.05 μg/mL represents higher antioxidant activity. […] The high antioxidant activity is referred to the presence of C=O, NH2, and OH groups like ascorbic acid which can be easily oxidized and reduced and can be used as antioxidant drugs. (Fig. 8 and Table 9).
compound,measurement,setting,value
"CCCCCCCCCCCCCCCCn1cc[n+](Cc2ccccc2)c1C.[I-] [NH125, reference compound]",%inh,"Eef2 kinase; Eef2, conc 0.01 (log -2)",20.1%
same,%inh,"Eef2 kinase; Eef2, conc 0.1 (log -1)",33.9%
same,%inh,"Eef2 kinase; Eef2, conc 1 (log 0)",62.7%
same,%inh,"Eef2 kinase; Eef2, conc 10 (log 1)",84.3%
same,%inh,"Eef2 kinase; Eef2, conc 100 (log 2)",92.6%
"CC(=O)c1ccc(NC(=O)CSc2nc(C)c3c(c2C#N)CC(C)(O)C(C(C)=O)C3c2ccc(N(C)C)cc2)cc1 (stereo not shown) [Compound 7d, 2-[(7-Acetyl-4-cyano-1,6-dimethyl-6-hydroxy-8-(4-N,N-dimethylamino-phenyl)-5,6,7,8-tetrahydroisoquinolin-3-yl)thio]-N-(4-acetylphenyl)acetamide]",IC50,"MCF7 cell line; Homo sapiens, MCF7, MCF7 cell line, MTT",495 ± 2 nM
same,Toxicity %,"MCF7 cell line; MCF7, 0.0487 µMol",1.8855%
same,Viability %,"MCF7 cell line; MCF7, 0.0487 µMol",98.2255%
same,Toxicity %,"MCF7 cell line; MCF7, 0.0975 µMol",3.5566%
same,Viability %,"MCF7 cell line; MCF7, 0.0975 µMol",96.5544%
same,Toxicity %,"MCF7 cell line; MCF7, 0.195 µMol",5.106%
same,Viability %,"MCF7 cell line; MCF7, 0.195 µMol",94.89%
same,Toxicity %,"MCF7 cell line; MCF7, 0.391 µMol",28.72%
same,Viability %,"MCF7 cell line; MCF7, 0.391 µMol",71.28%
same,Toxicity %,"MCF7 cell line; MCF7, 0.781 µMol",52.53%
same,Viability %,"MCF7 cell line; MCF7, 0.781 µMol",47.47%
same,Toxicity %,"MCF7 cell line; MCF7, 1.562 µMol",65.69%
same,Viability %,"MCF7 cell line; MCF7, 1.562 µMol",34.31%
same,Toxicity %,"MCF7 cell line; MCF7, 3.125 µMol",76.63%
same,Viability %,"MCF7 cell line; MCF7, 3.125 µMol",23.37%
same,Toxicity %,"MCF7 cell line; MCF7, 6.25 µMol",94.04%
same,Viability %,"MCF7 cell line; MCF7, 6.25 µMol",5.964%
same,Toxicity %,"MCF7 cell line; MCF7, 12.5 µMol",96.65%
same,Viability %,"MCF7 cell line; MCF7, 12.5 µMol",3.35%
same,Toxicity %,"MCF7 cell line; MCF7, 25 µMol",96.73%
same,Viability %,"MCF7 cell line; MCF7, 25 µMol",3.268%
same,Toxicity %,"A549 cell line; A549, Conc. 0.04875 µMol",1.982%
same,Viability %,"A549 cell line; A549, Conc. 0.04875 µMol",98.02%
same,Toxicity %,"A549 cell line; A549, Conc. 0.0975 µMol",2.4569%
same,Viability %,"A549 cell line; A549, Conc. 0.0975 µMol",97.5431%
same,Toxicity %,"A549 cell line; A549, Conc. 0.195 µMol",3.708%
same,Viability %,"A549 cell line; A549, Conc. 0.195 µMol",96.29%
same,Toxicity %,"A549 cell line; A549, Conc. 0.391 µMol",36.8%
same,Viability %,"A549 cell line; A549, Conc. 0.391 µMol",63.2%
same,Toxicity %,"A549 cell line; A549, Conc. 0.781 µMol",53.89%
same,Viability %,"A549 cell line; A549, Conc. 0.781 µMol",46.11%
same,Toxicity %,"A549 cell line; A549, Conc. 1.562 µMol",70.45%
same,Viability %,"A549 cell line; A549, Conc. 1.562 µMol",29.55%
same,Toxicity %,"A549 cell line; A549, Conc. 3.125 µMol",77.08%
same,Viability %,"A549 cell line; A549, Conc. 3.125 µMol",22.92%
same,Toxicity %,"A549 cell line; A549, Conc. 6.25 µMol",86.79%
same,Viability %,"A549 cell line; A549, Conc. 6.25 µMol",13.21%
same,Toxicity %,"A549 cell line; A549, Conc. 12.5 µMol",92.98%
same,Viability %,"A549 cell line; A549, Conc. 12.5 µMol",7.022%
same,Toxicity %,"A549 cell line; A549, Conc. 25 µMol",96.61%
same,Viability %,"A549 cell line; A549, Conc. 25 µMol",3.393%
same,IC50,"A549 cell line; Homo sapiens, read-out: IC50 ± SD",446 ± 4 nM
same,"DPPH scavenging, inhibition (%)",[1]; 0.01 µg/mL,48.08 ± 0.87%
same,"DPPH scavenging, inhibition (%)",[1]; 0.05 µg/mL,69.73 ± 0.73%
